From patent US7321046B2, “Analogs of dictyostatin, intermediates therefor and methods of synthesis thereof” (University of Pittsburgh, priority 2002, dated 2008)
Read-outs that look alike come from different tables or passages of the source.

Conditions: ester bond, toluene, 2 steps

## C=C/C=C\[C@H](C)[C@@H]1OC(=O)/C=C\C=C\[C@@H](C)[C@@H](O[Si](C)(C)C(C)(C)C)C[C@H](O[Si](C)(C)C(C)(C)C)/C=C\[C@H](C)[C@H](O[Si](C)(C)C(C)(C)C)[C@@H](C)CCCC[C@@H](O[Si](C)(C)C(C)(C)C)[C@@H]1C
From C=C/C=C\[C@H](C)[C@H](O)[C@@H](C)[C@@H](CCCC[C@H](C)[C@@H](O[Si](C)(C)C(C)(C)C)[C@@H](C)/C=C\[C@H](C[C@H](O[Si](C)(C)C(C)(C)C)[C@H](C)/C=C/C=C\C(=O)O)O[Si](C)(C)C(C)(C)C)O[Si](C)(C)C(C)(C)C, 2,4,6-trichlorobenzoyl chloride / Et3N / DMAP, 2.0 mM
  ring closure, yield of all isomers: 76%

## C=C/C=C\[C@H](C)[C@@H]1OC(=O)/C=C\C=C\[C@@H](C)[C@@H](O[Si](C)(C)C(C)(C)C)C[C@H](O[Si](C)(C)C(C)(C)C)/C=C\[C@H](C)[C@H](O[Si](C)(C)C(C)(C)C)[C@@H](C)C[C@@H](C)CC[C@@H](O[Si](C)(C)C(C)(C)C)[C@@H]1C
From C=C/C=C\[C@H](C)[C@H](O)[C@@H](C)[C@@H](CC[C@H](C)C[C@H](C)[C@@H](O[Si](C)(C)C(C)(C)C)[C@@H](C)/C=C\[C@H](C[C@H](O[Si](C)(C)C(C)(C)C)[C@H](C)/C=C/C=C\C(=O)O)O[Si](C)(C)C(C)(C)C)O[Si](C)(C)C(C)(C)C, 2,4,6-trichlorobenzoyl chloride / Et3N / DMAP (Yamaguchi), 1.71 mM, 25.0 °C, 12.0 h
  ring closure, yield of all isomers: 78%

## C=C/C=C\[C@H](C)[C@@H]1OC(=O)/C=C\C=C\[C@@H](C)[C@@H](O[Si](C)(C)C(C)(C)C)C[C@H](O[Si](C)(C)C(C)(C)C)/C=C\[C@H](C)[C@H](O[Si](C)(C)C(C)(C)C)[C@@H](C)C[C@@H](C)CC[C@H](O[Si](C)(C)C(C)(C)C)[C@@H]1C
From C=C/C=C\[C@H](C)[C@H](O)[C@@H](C)[C@H](CC[C@H](C)C[C@H](C)[C@@H](O[Si](C)(C)C(C)(C)C)[C@@H](C)/C=C\[C@H](C[C@H](O[Si](C)(C)C(C)(C)C)[C@H](C)/C=C/C=C\C(=O)O)O[Si](C)(C)C(C)(C)C)O[Si](C)(C)C(C)(C)C, 2,4,6-trichlorobenzoyl chloride / Et3N / DMAP (Yamaguchi), 1.74 mM, 25.0 °C, 12.0 h
  ring closure, yield of all isomers: 78%

## C=C/C=C\[C@H](C)[C@@H]1OC(=O)/C=C\C=C\[C@H](C)[C@@H](O[Si](C)(C)C(C)(C)C)C[C@H](O[Si](C)(C)C(C)(C)C)/C=C\[C@H](C)[C@H](O[Si](C)(C)C(C)(C)C)[C@H](C)C[C@@H](C)CC[C@@H](O[Si](C)(C)C(C)(C)C)C1C (stereo in doubt)
From C=C/C=C\[C@H](C)[C@H](O)[C@@H](C)[C@@H](CC[C@H](C)C[C@@H](C)[C@@H](O[Si](C)(C)C(C)(C)C)[C@@H](C)/C=C\[C@H](C[C@H](O[Si](C)(C)C(C)(C)C)[C@@H](C)/C=C/C=C\C(=O)O)O[Si](C)(C)C(C)(C)C)O[Si](C)(C)C(C)(C)C, 2,4,6-trichlorobenzoyl chloride / Et3N / DMAP, 1.94 mM, 25.0 °C, 16.0 h
  ring closure, yield of all isomers: 78%
